# Measurements taken from PMC5215691 (2017).
# Key:
# [1] = test system: KBA 2 (DNA, aptamer) ATGCGGATCCCGCGCGACCAACGGAAGCGCGCCACCCCATCGGCGGCGCGAAGCTTGCGC; experiment: ELONA (biotin-aptamer, streptavidin-HRP); conditions: for binding: immobilised compound, 1 μM aptamer
# [2] = test system: FAM-labeled KBA 3-1 (DNA, aptamer) CGGAAGCGCGCCACCCCATCGGCGGGCGCGAAGCTTGCG; experiment: RGO fluorescence quenching/recovery; conditions: 1X PBS pH 8.5, room temperature, 100 nM aptamer, 0.1 mg/mL RGO
# [3] = test system: KBA 3-1 (DNA, aptamer) CGGAAGCGCGCCACCCCATCGGCGGGCGCGAAGCTTGCG; experiment: ELONA (biotin-aptamer, streptavidin-HRP); conditions: for binding: immobilised compound, 1 μM aptamer
# [4] = test system: KBA 2-1 (DNA, aptamer) CGGAAGCGCGCCACCCCATCGGCGGCGCGAAGCTTGCG; experiment: ELONA (biotin-aptamer, streptavidin-HRP); conditions: not given; 1X PBS/PBST (concentrations not given); immobilised compound (amide bond on NOS plate); apparent
# [5] = test system: KBA 1-1 (DNA, aptamer) ATGCGGATCCCGCGCCGACGTCAGAGAGGCGCGCTGGTTTGCAC; experiment: ELONA (biotin-aptamer, streptavidin-HRP); conditions: not given; 1X PBS/PBST (concentrations not given); immobilised compound (amide bond on NOS plate); apparent
# [6] = test system: KBA 1-2 (DNA, aptamer) CGCGCCGACGTCAGAGAGGCGCG; experiment: ELONA (biotin-aptamer, streptavidin-HRP); conditions: not given; 1X PBS/PBST (concentrations not given); immobilised compound (amide bond on NOS plate); apparent
# [7] = test system: KBA 1 (DNA, aptamer) ATGCGGATCCCGCGCCGACGTCAGAGAGGCGCGCTGGTTTGCACCGCGCGAAGCTTGCGC; experiment: ELONA (biotin-aptamer, streptavidin-HRP); conditions: not given; 1X PBS/PBST (concentrations not given); immobilised compound (amide bond on NOS plate); apparent
# [8] = test system: KBA 2-2 (DNA, aptamer) CGCCACCCCATCGGCGGCG; experiment: ELONA (biotin-aptamer, streptavidin-HRP); conditions: not given; 1X PBS/PBST (concentrations not given); immobilised compound (amide bond on NOS plate); apparent
# [9] = test system: KBA 3-2 (DNA, aptamer) CGCCACCCCATCGGCGGGCG; experiment: ELONA (biotin-aptamer, streptavidin-HRP); conditions: not given; 1X PBS/PBST (concentrations not given); immobilised compound (amide bond on NOS plate); apparent
# [10] = test system: KBA 3 (DNA, aptamer) ATGCGGATCCCGCGCACCAACGGAAGCGCGCCACCCCATCGGCGGGCGCGAAGCTTGCGC; experiment: ELONA (biotin-aptamer, streptavidin-HRP); conditions: not given; 1X PBS/PBST (concentrations not given); immobilised compound (amide bond on NOS plate); apparent
# [11] = not given, 1X PBS/PBST (concentrations not given), immobilised compound (amide bond on NOS plate), apparent
binding [1],binding [3],binding ([2]; 1 μM antibiotic),SMILES,also measured
weak,weak,weak,CN[C@@H]1[C@H](O[C@H]2[C@H](O[C@H]3[C@H](O)[C@@H](O)[C@H](N=C(N)N)[C@@H](O)[C@@H]3N=C(N)N)O[C@@H](C)[C@]2(O)C=O)O[C@@H](CO)[C@H](O)[C@H]1O,–
weak,weak,weak,CN[C@@H]1[C@H](O[C@H]2[C@H](O[C@H]3[C@H](O)[C@@H](O)[C@H](N=C(N)N)[C@@H](O)[C@@H]3N=C(N)N)O[C@@H](C)[C@]2(O)CO)O[C@@H](CO)[C@H](O)[C@H]1O,–

# Second part, the molecule before the results:
SMILES,binding [1],binding [3],binding ([2]; 1 μM antibiotic),also measured
CC1(C)S[C@@H]2[C@H](NC(=O)[C@H](N)c3ccccc3)C(=O)N2[C@H]1C(=O)O,weak,weak,–,binding ([2]; 1 μM ampicillin): no
CN(C)[C@@H]1C(=O)C(C(N)=O)=C(O)[C@@]2(O)C(=O)C3=C(O)c4c(O)cccc4[C@@](C)(O)[C@H]3C[C@@H]12,weak,weak,weak,–
NC[C@H]1O[C@H](O[C@H]2[C@H](O)[C@@H](O[C@H]3O[C@H](CO)[C@@H](O)[C@H](N)[C@H]3O)[C@H](N)C[C@@H]2N)[C@H](O)[C@@H](O)[C@@H]1O,–,–,–,"Kd^app [1, 11]: 34.7 ± 35.6 nM; Kd^app [4]: 182 ± 57.2 nM; Kd^app [5]: 268 ± 26.7 nM; binding ([2]; 1 pM to 1 μM kanamycin): yes; Kd^app [6]: 669 ± 10.7 nM; Kd^app [7]: 268 ± 20.8 nM; Kd^app [8]: 564 ± 92.5 nM; Kd^app [9]: 239 ± 52.5 nM; Kd^app [3, 11]: 92.3 ± 29.1 nM; Kd^app [10]: 341 ± 12.8 nM"
